Data on three compounds can be found in publication PMC10765884, “MC180295 is a highly potent and selective CDK9 inhibitor with preclinical in vitro and in vivo efficacy in cancer” (Clinical Epigenetics, 2024).

In brackets after ≈: the same amount, converted by molar mass.

Series [1] in a line: Kinetic solubility. It is filed as physicochemical. Particulars: Dulbecco's PBS, aqueous buffer, kinetic from dmso stock; PBS (pH 7.4), Free Base. Here is the method:
The kinetic solubility of test compounds was determined by adapting Millipore® application note protocol AN1730EN00. Liquid handling was performed using PerkinElmer® Verispan and MDT workstations. In triplicate, 4 µL of 10 mM test compounds in DMSO were added to 196 µL of buffer (Dulbecco’s’ PBS or water). The 200 µM compound solutions, in 2% DMSO, were incubated with gentle shaking for 90 min at RT before vacuum filtration in 96-well polypropylene collection plates, using a Millipore® filtration manifold. 160 µL of filtrate was transferred to a 96-well UV Star analysis plate (Greiner Bio-One® plate # 655,801) containing 40 µL acetonitrile. Standard curves were generated by adding 4 µL of 50 × of five concentrations of test compounds, in DMSO, to 40 µL acetonitrile in UV Star plates, followed by 156 µL buffer. Absorbances at […] were measured using a Molecular Devices® Spectramax Plus microplate reader with Softmax Pro v. 5.4.5 software. Absorbance readings were summed to generate the signal. Test sample concentrations were interpolated from linear standard curves using GraphPad® Prism v 5.04.

A short description of series [2]: Liver microsome stability assay. It is filed as in vitro ADME, mouse. Particulars: pH 7.4; for remaining at 1 h, 1 µM: male, CD-1, pooled liver microsomes, Mouse liver microsomes, without NADPH, 60 min, read-out: Stability minus NADPH % Remaining @ 60 min; for half-life at 1 µM: pooled liver microsomes, Mouse (CD-1, male) liver microsomes. Here is the method: Assays were conducted in 96-deep well polypropylene plates. In duplicate, test compounds (1 µM) were incubated in 0.5 mL of 100 mM potassium phosphate buffer (pH 7.4), with 0.5 mg/ml pooled liver microsomes (Life Technologies: CD-1 male mice # MSMCPL; SD male rat # RTMCPL; mixed gender human # HMMCPL. BD Genetest male beagle dog; # 452,601; male marmoset # 452,340), 2 mM tetra sodium NADPH, and 3 mM MgCl2, for 60 min in a Labnet® Vortemp incubator at 37 °C, with gentle shaking. At five time points, 75 µL of reaction mixtures were transferred on ice to a 96-shallow well stop plate containing 225 µL acetonitrile with 0.1 µM propafenone. […] Standard curves for test compounds were generated using 5 concentrations (in duplicate) that were processed as above but with no incubation time. Stop plates were centrifuged at 2000xg for 10 min in a Sorvall ST 16 centrifuge, and 170 µL of the supernatants transferred to a Waters® Aquity UPLC (Ultra Performance Liquid Chromatography) 700 µL 96-well sample plate with cap mat. A Waters® Aquity UPLC BEH C18 1.7 µM, 2.1 × 50 mm column, at 40 °C, was used to fractionate 5 µL samples, using a 3 min linear 5 to 95% acetonitrile gradient in 0.1% formic acid with a 0.75 mL/min flow rate. In tandem with UPLC, compound concentrations were analyzed using a Waters® TQ MS mass spectrometer in electrospray-positive mode (source temperature 150 °C; desolvation temperature 450 °C; desolvation flow rate of 900 L/hr). Cone voltages, collision energies, and quantitation were optimized and determined using Waters® QuanOptimize software, with propafenone as an internal standard. MC180379:CV 34; CE 34; mrm 359.15 > 114.91; MC180390 CV 34; CE 28; mrm 359.15 > 114.92. GraphPad® Prism v 5.04 was used for nonlinear fitting of time course data to generate t1/2 and CLint (intrinsic clearance) values.
Background: Liver microsomes are a subcellular fraction often used to study metabolism.

Series [3] is described as follows: Rat hepatocyte stability assay. Particulars: cryopreserved primary hepatocytes; Rat (Sprague-Dawley) hepatocytes, male. Further details: dose or concentration left out as unconfirmed. It is filed as in vitro ADME. The protocol: CLint (μL/min/10^6 cells) estimates were determined using a modified method of […] et al.. Cryopreserved rat (Sprague-Dawley) primary hepatocytes (4 male donors) (Life Tech product RTCS10) were rapidly thawed, diluted with Hank's balanced salt solution at 37 °C and centrifuged for 5 min at 100 × g. Resuspended cells were stained with 0.016% trypan blue and counted. Cell viability was > 80%. 0.25 mL of a 1 × 10^6 viable cells/ml cell suspension was added to 16-mm diameter wells of an uncoated polystyrene plate. The prewarmed plate was placed in a 37 °C incubator with 5% CO2 atmosphere, with 100 oscillations/min shaking. After 5 min, 0.25 mL of 2 μM test compound, in prewarmed HBSS, was added per well and mixed to start the reactions, with duplicate reactions per compound. Verapamil was used as a positive control, and cell-free reactions served as negative controls. At each time point (0, 5, 15, 30, 60, 90, and 120 min), 50 μL aliquots were transferred to a 96-well stop plate containing 200 μL/well acetonitrile: water (85:15), with 0.1% formic acid and 0.1 μM propafenone. The plate was centrifuged for 10 min at 2300 × g. 150 μL of the supernatant was transferred to a mass spectrometry sample plate. Samples were analyzed by UPLC/MS, as described in the microsome stability protocol. Results are expressed as t1/2 (min) and in vitro CLint (μL/min/10^6 cells).

The nature of series [4]: Drug toxicity: body weights and complete blood counts in tumor-bearing mice. It is filed as in vivo. Here is the method:
For the s.c. SW48 model, 2 × 10^6 cells were injected into the flanks of randomly assigned, gender-matched 8–10-week-old NSG mice. 20 mg/kg MC180379, MC180380, or MC180295 was injected (i.p.), every other day, when the tumors were palpable, 11 days after engraftment, until endpoints were met. Mice were sacrificed before tumor volumes exceeded 400 mm^2 (endpoint for this model). For the s.c. HT29 model, 2 × 10^6 cells were injected into the flanks of randomly assigned, gender-matched, 8–10-week-old NSG mice. 20 mg/kg MC180379 or MC180380 was injected (i.p.), every other day, when the tumors were palpable, 12 days after engraftment, until endpoints were met. Mice were sacrificed before tumors volumes exceeded 400 mm^2 (used as the endpoint for this model). For the CT26.CL25 model, 5 × 10^5 cells were injected into the flanks of randomly assigned female 8–10-week-old B6 mice. 20 mg/kg MC180295 was injected (i.p.), every other day, when the tumors were palpable, 8 days after engraftment, until endpoints were met. 0.5 mg/kg DAC was injected (i.p.) daily until an endpoint was met. Mice were sacrificed when they developed serious tumoral ulcerations. CD8 + T cells were depleted using an anti-CD8 antibody (InVivoMAb anti-mouse CD8 (Lyt 2.1), BE0118) on days 4, 5, and 11 after inoculation. MC180295, MC180379, and MC180380 were dissolved in NMP (Fisher Scientific), Captisol® (20% w/v) (CyDex), PEG-400 (Millipore Sigma), and normal saline (PBS) (Corning), at a ratio of 1:4:4:11. NMP was added first, followed by Captisol and PEG-400. PBS was added last. DAC was dissolved in water. In a subset of the experiments, after mice were sacrificed, peripheral blood was collected, and complete blood counts were obtained using Abaxis VetScan HM5.

[5] abbreviates: SW48 model, 20 mg/kg i.p. q.o.d.
Where [6] appears, read: HT29 model, 20 mg/kg i.p. q.o.d.

In the case of `Nc1nc(N[C@@H]2C[C@H]3CC[C@@H]2C3)sc1C(=O)c1ccccc1[N+](=O)[O-]` [MC180379], the solubility (usually the dissolved amount per volume that the medium holds) at 90 min in series [1] was determined as 53.5 µM (≈ 19.2 µg/mL). For the same compound, in series [2], the share remaining (commonly what is left of the initial amount, in per cent) at 1 h, 1 µM is 86% and the half-life – broadly, how long it takes for the measured level to halve – at 1 µM amounted to 3.2 min. The same compound came in with a half-life in series [3] of 4.1 min. Also, the “tolerability; neutrophil, lymphocyte, monocyte counts” value in series [4] (setting [5]) is “well-tolerated”.
With `Nc1nc(N[C@H]2C[C@@H]3CC[C@H]2C3)sc1C(=O)c1ccccc1[N+](=O)[O-]` (relative stereo) [MC180295], the body weights result is “neither MC180295 nor MC180295 + DAC treatment affected NSG mouse body weights, after CD8 depletion” in series [4] (CT26.CL25 immunocompetent mice, after CD8 depletion, Fig. S5B); “neither MC180295 nor MC180295 + DAC treatment affected NSG mouse body weights” in series [4] (CT26.CL25 immunocompetent mouse model, Fig. S5A); “did not affect NSG mouse body weights” in series [4] (SW48 model, NSG mice, Fig. S4C).
The compound `Nc1nc(N[C@H]2C[C@@H]3CC[C@H]2C3)sc1C(=O)c1ccccc1[N+](=O)[O-]` [MC180380] gave a solubility at 90 min in series [1] of 52.6 µM (≈ 18.9 µg/mL). In addition, in series [2], the fraction remaining at 1 h, 1 µM stood at 88% and the half-life at 1 µM stood at 7.1 min. The half-life in series [3] was 11.7 min. Moreover, in series [4] (setting [6]), the “absolute lymphocyte and monocyte counts” value is “higher absolute lymphocyte and monocyte counts than MC180379-treated mice”; the platelet counts entry is reported as “higher platelet counts than those treated with MC180379”. Further, in series [4] (setting [5]), the platelet counts result is given as “slightly higher platelet counts than MC180379” and the “tolerability; neutrophil, lymphocyte, monocyte counts” value is reported as “well-tolerated”. The body weights entry in series [4] (SW48 model, NSG mice, Fig. S4E) is recorded as “did not affect NSG mouse body weights”. The bone marrow suppression result in series [4] (in vivo, from lymphocyte, monocyte and platelet counts) is listed as “less bone marrow-suppressive (and thus less toxic) than MC180379”.
